Assay results reported in EP3876933B1, “NEUTROPHIL INFLAMMATION INHIBITOR AND USES THEREOF” (Chang Gung University of Science and Technology, priority 2018, dated 2020).

Key:
[1] = test system: human neutrophils; assay: Superoxide anion (O2˙-) generation in fMLF/CB-activated human neutrophils (SOD-inhibitable ferricytochrome c reduction); assay type: cell-based; settings: FMLP/CB-induced human neutrophils, mean ± S.E.M. (n = 3-5); for IC50 / inhibition at 10 µM: Neutrophil; for IC50: read-out: Superoxide Anion IC50; for inhibition at 10 µM / Superoxide Anion Inhibition %: at 10 µM concentration
Protocol: (§1) Human neutrophils were obtained in lipopolysaccharide-free conditions by means of dextran sedimentation and Ficoll centrifugation.
O2˙^- production was determined based on the SOD-inhibitable reduction of ferricytochrome c. Briefly, neutrophils (6 × 10^5/mL) were treated with a candidate compound at 37 °C at various concentrations (0.001 to 10 µM) for 5 min after being supplementing with 0.5 mg/mL ferricytochrome c and 1 mM Ca^2+. Cells were then activated with fMLF (0.1 µM) for 10 min in the pre-process of cytochalasin B (CB, 1 µg/mL) for 3 min. Changes in absorbance with the reduction of ferricytochrome c at 550 nm were continuously monitored in a double-beam, six-cell positioner spectrophotometer with constant stirring (Hitachi U-3010, Tokyo, Japan). Calculations were based on the differences in the reactions with and without SOD (100 U ml^-1) divided by the extinction coefficient for the reduction of ferricytochrome c (ε = 21.1 mM^-1/10 mm).

[2] = test system: human neutrophils; assay: Elastase release in fMLF/CB-activated human neutrophils (Methoxysuccinyl-Ala-Ala-Pro-Val-p-nitroanilide substrate); assay type: cell-based; settings: Neutrophil, FMLP/CB-induced human neutrophils, mean ± S.E.M. (n = 3-5); for IC50: read-out: Elastase Release IC50; for inhibition at 10 µM: at 10 µM concentration
Protocol: as §1
Methoxysuccinyl-Ala-Ala-Pro-Val-p-nitroanilide was employed as the elastase substrate for the determination of elastase release. Briefly, after supplementation with Methoxysuccinyl-Ala-Ala-Pro-Val-p-nitroanilide (100 µM), neutrophils (6 × 10^5/mL) were equilibrated at 37 °C for 2 min and incubated with a candidate compound at various concentrations for 5 min. Cells were then activated with fMLF (0.1 µM) for 10 min in the pre-process of CB (0.5 µg/mL) for 3 min, and changes in absorbance at 405 nm were continuously monitored to evaluate elastase release. Results are expressed as the percentage of elastase release in the drug-free control group, DMSO.

SMILES	IC50 [1] [µM]	inhibition at 10 µM [1] [%]	IC50 [2] [µM]	inhibition at 10 µM [2] [%]	Superoxide Anion Inhibition % [1]
Cn1nc(N)c2c(Nc3ccccc3)nc3ccccc3c21 [Compound 3, 4-Anilino-l-methyl-1H-pyrazolo[4,3-c]quinolin-3-amine]	2.39 ± 0.63	93.9 ± 6.32	4.09 ± 1.02	80.5 ± 2.57	
CSc1ccc(Nc2nc3ccccc3c3c2c(N)nn3C)cc1 [Compound 9, 1-Methyl-4-(4-methylthioanilino)-1H-pyrazolo[4,3-c]quinolin-3-amine]	> 10	47.7 ± 3.32	> 10	20.8 ± 3.75	
CC(=O)c1ccc(Nc2nc3ccccc3c3onc(N)c23)cc1 [Compound 27, 4-(4-Acetoylanilino)isoxazolo[4,5-c]quinolin-3-amine]	> 10	37.4 ± 5.43	> 10	-9.53 ± 5.26	
Cc1ccc(Nc2nc3ccccc3c3onc(N)c23)cc1 [Compound 33, 4-(4-Methylanilino)isoxazolo[4,5-c]quinolin-3-amine]			7.24 ± 0.72	68 ± 5.23	enhanced
Cn1nc(N)c2c(Nc3ccccc3O)nc3ccccc3c21 [Compound 11, 4-(2-Hydroxyanilino)-1-methyl-1H-pyrazolo[4,3-c]quinolin-3-amine]	0.73 ± 0.23	93.5 ± 1.75	2.24 ± 0.91	101 ± 4.5	
CC(=O)c1cccc(Nc2nc3ccccc3c3onc(N)c23)c1 [Compound 26, 4-(3-Acetoylanilino)isoxazolo[4,5-c]quinolin-3-amine]	2.88 ± 0.27	76.2	> 10	-4.55 ± 5.83	
CSc1ccc(Nc2nc3ccccc3c3onc(N)c23)cc1 [Compound 25, 4-(4-Methylthioanilino)isoxazolo[4,5-c]quinolin-3-amine]			> 10	18.1 ± 3.97	enhanced
COc1cc(Nc2nc3ccccc3c3c2c(N)nn3C)cc(OC)c1OC [Compound 8, 4-(3,4,5-Trimethoxyanilino)-1-methyl-1H-pyrazolo[4,3-c]quinolin-3-amine]	0.8 ± 0.09	98.2 ± 2.41	3.25 ± 0.08	89.8 ± 6.51	
Nc1noc2c1c(Nc1ccccc1)nc1ccccc12 [Compound 19, 4-Anilinoisoxazolo[4,5-c]quinolin-3-amine]	> 10	43.7 ± 6.43	> 10	5.81 ± 5.22	
Cn1nc(N)c2c(Nc3ccccc3S)nc3ccccc3c21 [Compound 16, 2-[(3-amino-1-methyl-1H-pyrazolo[4,3-c]quinolin-4-yl)amino]benzenethiol]	> 10	4.05 ± 2.95	> 10	-3.34 ± 1.78	
Nc1noc2c1c(Nc1ccc(C(=O)O)cc1)nc1ccccc12 [Compound 31, 4-[(3-aminoisoxazolo[4,5-c]quinolin-4-yl)amino]benzoic acid]	> 10	7.44 ± 4.23	> 10	-1.4 ± 3.53	
COc1ccccc1Nc1nc2ccccc2c2onc(N)c12 [Compound 21, 4-(2-Methoxyanilino)isoxazolo[4,5-c]quinolin-3-amine]	> 10	32.7 ± 4.92	> 10	-8.32 ± 2.23	
Nc1noc2c1c(Nc1ccccc1O)nc1ccccc12 [Compound 28, 4-(2-Hydroxyanilino)isoxazolo[4,5-c]quinolin-3-amine]	4.54 ± 1.18	91 ± 1.69	5.77 ± 1.14	77.6 ± 4.52	
COc1cccc(Nc2nc3ccccc3c3onc(N)c23)c1 [Compound 22, 4-(3-Methoxyanilino)isoxazolo[4,5-c]quinolin-3-amine]	6.53 ± 0.9	69.2 ± 3.14	> 10	-3.61 ± 0.98	
Cn1nc(N)c2c(Nc3ccc(C(=O)O)cc3)nc3ccccc3c21 [Compound 15, 4-[(3-Amino-1-methyl-1H-pyrazolo[4,3-c]quinolin-4-yl)amino]benzoic acid]	1.83	82.9 ± 2.86	3.68 ± 0.42	79.4 ± 1.91	
